# Laboratory results published in patent US20250064762A1, “A SUBSTITUTED AROMATIC DICARBONIC ACID AMIDE AS AN INHIBITOR OF THE FERROPTOSIS SUPPRESSOR PROTEIN-1 (FSP1)” (JULIUS-MAXIMILIANS-UNIVERSITÄT WÜRZBURG, priority 2021, published 2025).
# “Also recorded” adds a separate entry of the source.
# Key:
# [1] = system: HT1080 cells, mouse embryonic fibroblasts (MEFs), Du145 and PC3; experiment: Cell viability (AquaBluer): ferroptosis inducers (FINs) with or without CPBA; format: cell-based, human; conditions: 16 h
# Method: Cells were seeded onto 96-well plates (5,000 cells per well), and treated with serial dilutions of ferroptosis-inducing compounds (erastin, BSO, RSL3, FIN56) or cytotoxic drugs (staurosporine, nocodazole, tunicamycin, paclitaxel, etoposide, menadione, rotenone, FCCP, carboplatin) in the absence or presence of CPBA or iFSP1 (100 μM or 10 μM, respectively; unless stated otherwise) or the DMSO solvent control. Ferroptotic cell death was evaluated by incubating in the absence or presence of liproxstatin-1 (100 nM), ferrostatin-1 (200 nM), or deferoxamine (100 μM). Cell viability was assessed after 16 h using AquaBluer as an indicator of viable cells according to the manufacturer's recommendations (MultiTarget Pharmaceuticals, LLC). Fluorescence (excitation, 540 nm; emission, 590 nm) was analyzed on a Clariostar microplater reader.
# HT1080 cells, mouse embryonic fibroblasts (MEFs, non-transformed, non-immortalized) and human prostate carcinoma cell lines Du145 and PC3 were incubated with serial dilutions of ferroptosis inducers (FINs) erastin, BSO, RSL3 or FIN56 in the absence or presence of CPBA and/or the ferroptosis inhibitor liproxstatin-1 (HT1080, Du145, PC3: 200 μM CPBA, MEF: 100 μM CPBA; lip-1:100 nM), and cell viability was analyzed after 16 h using Aquabluer. […]
# AUC values (AUC FIN+CPBA/AUC FIN+ctrl) were calculated as described above.
# murine PGP = target: T1, murine PGP (Mus musculus, UniProt Q8CHP8); experiment: In vitro phosphoglycolate phosphatase assay (malachite green); format: biochemical
# T1 construct: made in house
# T1 sequence (Q8CHP8 1-321): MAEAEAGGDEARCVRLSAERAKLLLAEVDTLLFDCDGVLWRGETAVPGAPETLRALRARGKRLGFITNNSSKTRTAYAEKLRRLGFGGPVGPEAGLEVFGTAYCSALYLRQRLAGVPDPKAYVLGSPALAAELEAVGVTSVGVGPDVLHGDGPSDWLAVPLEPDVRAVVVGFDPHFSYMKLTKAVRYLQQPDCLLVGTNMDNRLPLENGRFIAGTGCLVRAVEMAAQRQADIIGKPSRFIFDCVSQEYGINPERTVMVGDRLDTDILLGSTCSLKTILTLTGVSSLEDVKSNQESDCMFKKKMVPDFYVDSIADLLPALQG
# Method: Recombinant, purified murine phosphoglycolate phosphatase (PGP) was expressed and purified as described (Seifried et al., 2014). Experiments were performed in TNM30 (30 mM triethanolamine, 30 mM NaCl, 5 mM MgCl2; PH 7.5), supplemented with 0.01% (v/v) Triton X-100 and 5 mM dithiothreitol (DTT). Assays were conducted at room temperature in a final reaction volume of 50 μL in 96-well microtiter plates. PGP (5.7 nM) was pre-incubated with the compounds or the DMSO solvent control for 10 min, and enzyme reactions were started by the addition of the substrate phosphoglycolate (PG, 200 μM). Buffer without enzyme served as a background control. Inorganic phosphate release from PG was detected with malachite green solution (Biomol Green; Enzo Life Sciences). The absorbance at 620 nm (A620) was measured on an Envision 2104 multilabel microtiter plate reader (Perkin Elmer Life Sciences). Released phosphate was determined by converting the values to nmol Pi with a phosphate standard curve. Data were analyzed with GraphPad Prism version 7.0.5. For IC50 determinations, loginhibitor versus response was calculated for a Hill slope of −1.
# Free inorganic phosphate released by PG dephosphorylation was quantified using malachite green.
# [2] = system: HT1080 GPX4-knockout (KO) cells; experiment: Viability of GPX4-knockout cells after α-tocopherol wash-out; format: cell-based, human; conditions: 100 μM CPBA; 48-120 h after α-tocopherol wash-out
# Method: The following HT1080 fibrosarcoma cell lines were generated using CRISPR/Cas9 technology, as previously described (Doll et al., 2019): HT1080 GPX4-knockout (KO) cells (maintained in the presence of 100 μM α-tocopherol); HT1080 GPX4 knockout cells overexpressing FSP1 (GPX4-KO/FSP1-OE); GPX4-KO cells overexpressing FSP1 and re-expressing GPX4 (GPX4-KO/FSP1-OE/GPX4-OE); HT1080 FSP1-WT or FSP1-KO cells; and HT1080 FSP1-KO cells reconstituted with either FSP1-WT or FSP1-G2A. LOX-IMVI (BRAF V600E heterozygous human melanoma cells) expressing either the Venus mock vector or FSP1-Venus (Doll et al., 2019) were grown in RPMI-1640 supplemented with 10% FCS, 2 mM L-glutamine and Pen/Strep.
# In order to study the effect of CPBA-induced sensitization to ferroptosis in the absence of the ferroptosis suppressor GPX4, we generated HT1080 GPX4-knockout (KO) cells using CRISPR/Cas9 technology as described above. Lack of GPX4 expression in GPX4-KO cell lines was confirmed by Western Blot as described above (see FIG. 11). […] Cell viability was assessed at 48 h, 72 h, 96 h and 120 h using AquaBluer.
structure (smiles),measurement,setting,value
"O=C(Nc1ccccc1C(=O)O)c1ccc(Oc2ccc(C(=O)Nc3ccccc3C(=O)O)cc2)cc1 [CPBA, 2-[[4-[4-[(2-carboxyphenyl)carbamoyl]phenoxy]benzoyl]amino]-benzoic acid]",effect on FIN-induced ferroptosis / cell viability,"[1]; FINs erastin, BSO, RSL3 or FIN56, 200 μM CPBA (MEF: 100 μM)",increases the negative effect of FINs on cell viability; also recorded: strongly increases FIN-induced ferroptosis in all cell lines
same,concentration dependence of ferroptosis-sensitization,"[1]; HT1080 and PC3 cells, serial dilutions of FINs±CPBA",ferroptosis-sensitization by CPBA is concentration-dependent
same,inhibition of PGP,murine PGP,inhibitor of PGP
same,ferroptosis in the absence of GPX4,[2],accelerates ferroptosis in the absence of GPX4
